# Literature values, collected in US8530651B2, “Process for the preparation of anagrelide and analogues” (Shire LLC, priority 2008, dated 2013).
# Like-named read-outs stand apart in the source and are kept apart here.
# Columns and labels:
# [1] = solid
# [2] = humans; radiolabeled base
# [3] = monkeys; radiolabeled base
structure (smiles),measurement,setting,value
"O=C1CN2Cc3c(ccc(Cl)c3Cl)N=C2N1 [anagrelide base, 6,7-dichloro-1,5-dihydroimidazo[2,1-b]quinazolin-2 (3H)-one]",aqueous solubility,[1],low aqueous solubility
same,absorption into blood plasma,[2],complete absorption
same,absorption into blood plasma,[3],complete absorption
